Experimental data reported in ChEMBL document CHEMBL1157539, “Thousands of chemical starting points for antimalarial lead identification” (Nature, 2010).

System: Plasmodium falciparum
Assay: GSK_TCMDC: Inhibition of Plasmodium falciparum 3D7 in whole erythrocytes, using parasite LDH activity as an index of growth.
Assay type: functional, organism-based
Conditions: Plasmodium falciparum, 3D7

COCCOc1cc(C)c(C2CCN(CCCCNC(=O)c3ccc(NC(=O)c4ccc(Cl)cc4)cc3)CC2)cc1C
XC50: 951 nM

C=CCn1ccc2c3c(N)nc(N)nc3ccc21
XC50: 70 nM

C=C(C)C1CC=C(CN2CCCC(n3ccc4cc(NC(=O)c5ccco5)ccc43)CC2)CC1 (stereo unspecified)
XC50: 753 nM

COc1ccc(-c2cccc(NC(=O)c3cccc(Cl)c3)c2)cc1CN1CCC(O)CC1
XC50: 791 nM

Cc1cccc2nc(-c3ccc(-c4ccc(CNC(C)C)cc4)cc3)[nH]c12
XC50: 676 nM

COc1ccccc1CC(C)NCC(O)c1cccc(Cl)c1 (stereo unspecified)
XC50: 811 nM

Cc1ccc2[nH]c(C)c(Br)c(=O)c2c1
XC50: 812 nM

Cc1cc(N[C@@H](CC(C)C)C(=O)NCCc2ccccc2)nc(NCCc2ccc(F)cc2)n1
XC50: 771 nM

CCN(CC)CCNC(=O)c1ccc(NC(=O)c2cc(-c3ccncc3)nc3ccccc23)cc1
XC50: 770 nM

COc1cccc(CNC[C@@H](O)[C@H](Cc2ccccc2)NC(=O)c2cc(C(C)C)cc(N3CCCC3=O)c2)c1
XC50: 953 nM

Cc1nc2ccc3ccc(CNc4ccc5c(c4)CN([C@@H](CCC(=O)O)C(=O)O)C5=O)cc3c2c(=O)[nH]1 [OSI-7904]
XC50: 164 nM

CCc1cn2c3c(cc(C(=O)N[C@@H](Cc4ccccc4)[C@H](O)CNC4CCCC4)cc13)N(C)S(=O)(=O)CC2
XC50: 46.9 nM

Cn1c(N)cc(-c2cccc(I)c2)c2c(=O)nc(N)nc1-2
XC50: 269 nM

c1cc(-c2ccc(CN3CCN(c4ccncc4)CC3)cc2)cc(-c2nc3ccccc3[nH]2)c1
XC50: 140 nM

CN1CCC(NCc2ccc(-c3cccc(-c4nc5ccccc5[nH]4)c3)cc2)CC1
XC50: 126 nM

CNCCNCc1ccc(-c2cccc(-c3nc4cc(C(F)(F)F)ccc4[nH]3)c2)cc1
XC50: 628 nM

CN(C)CCCNCc1ccc(-c2ccc(CNCCOc3ccccc3)cc2)cc1
XC50: 18.6 nM

Cc1ccccc1OCCCc1c(C)nc(N)nc1N
XC50: 277 nM

Cc1cc(C2CCN(CCCCNC(=O)c3ccc(NC(=O)c4ccc(Cl)cc4)cc3)CC2)c(C)cc1OC(C)C
XC50: 744 nM

CC1CN(c2cnn(Cc3ccc(NC(=O)Nc4ccc(-c5ccccc5)cc4)cc3)c(=O)c2Cl)CC(C)N1 (stereo unspecified)
XC50: 367 nM

CC(C)CNCc1cccc(-c2ccc(CNC3CCN(Cc4ccccc4)CC3)cc2)c1
XC50: 271 nM

Cc1ccc(CN2CCCN(Cc3cccc(NC(=O)c4cc5ccccc5s4)c3)CC2)cc1C
XC50: 735 nM

CC(C)(C)c1ccc(CN2CCC(CNC(=O)c3cc(-c4ccccc4C(F)(F)F)cs3)C2)cc1 (stereo unspecified)
XC50: 1240 nM

O=C(N[C@@H](Cc1ccccc1)C(=O)NC1CCCc2ccccc21)c1ccc(O)c(-c2ccc(Cl)c(Cl)c2)c1 (stereo partly specified)
XC50: 209 nM

O=[N+]([O-])c1cccc(CNC2CCN(Cc3ccc(C(F)(F)F)cc3)CC2)c1
XC50: 736 nM

O=C(Nc1cccc(CN2CCCN(CC3CCCCC3)CC2)c1)c1ccc(Cl)c(Cl)c1
XC50: 962 nM

Cc1n[nH]c2ccc(-c3cc(OC[C@@H](N)Cc4ccccc4)cnc3-c3ccccc3OCc3cccc(F)c3)cc12
XC50: 1220 nM

O=C(NCCCN1CCC(N2CCCCC2)CC1)c1ccc(N2CCOc3ccccc32)s1
XC50: 732 nM

COc1ccc2nccc([C@@H](O)CN3CCC(NC(=O)c4ccc(-c5ccc(C#N)cc5)cc4)CC3)c2c1
XC50: 164 nM

NCC1CCCN1Cc1cccc(-c2cccc(-c3nc4cc(F)ccc4[nH]3)c2)c1 (stereo unspecified)
XC50: 813 nM

COc1ccc(F)cc1-c1ccccc1CNC(=O)CN(C)S(=O)(=O)c1cc(C)cc(Cl)c1C
XC50: 665 nM

O=C(NCCc1ccccc1)N(Cc1ccccc1-c1cccc(CNCc2ccc3c(c2)OCO3)c1)C1CCN(Cc2ccccc2)CC1
XC50: 987 nM

O=C(Nc1cccc(-c2ccc(-c3nc4cc(C(F)(F)F)ccc4[nH]3)cc2)c1)c1c[nH]cn1
XC50: 966 nM

CC(C)(C)c1ccccc1OCCCON1C(=N)N=C(N)NC1(C)C
XC50: 3.2 nM

COc1ccc(O)c(Cc2cnc3nc(N)nc(N)c3c2C)c1
XC50: 36.8 nM

Cc1nnc2sc(-c3cccc(NC(=O)c4ccc(N5CCCCC5)c([N+](=O)[O-])c4)c3)nn12
XC50: 1300 nM

CS(=O)(=O)Nc1cccc(-c2cnc3[nH]cc(-c4ccc(C(=O)O)cc4)c3c2)c1
XC50: 857 nM

CN(C)CCNC(=O)c1csc(Nc2ccc(Cl)c(Cl)c2)n1
XC50: 225 nM

COc1ccc(CC(=O)NC(CCN2CCC3(CC2)CN(S(C)(=O)=O)c2ccccc23)c2ccc(Cl)c(Cl)c2)cc1OC (stereo unspecified)
XC50: 998 nM

Cc1ccc(NC(=O)Nc2cccc(Cl)c2)cc1-c1ccc(C(=O)Nc2ccncc2)cc1
XC50: 738 nM

N=c1c2c(n(Cc3ccc(Cl)cc3Cl)c3c1CCC3)CCCC2
XC50: 350 nM

CN1CCCN(c2ccnc3cc4c(cc23)N(C(=O)c2ccc(C(F)(F)F)cc2)CC4)CC1
XC50: 794 nM

Cc1ccc2c(c1)c(C1CCN(C(=O)c3ccc([N+](=O)[O-])o3)CC1)cn2C
XC50: 746 nM

NC1CCN(Cc2cccc(-c3cccc(-c4nc5ccccc5[nH]4)c3)c2)C1 (stereo unspecified)
XC50: 790 nM

Oc1cccc(Nc2ccnc3cc(-c4ccccn4)ccc23)c1
XC50: 744 nM

Cc1onc(-c2ccccc2)c1C(=O)Nc1nc(-c2ccccn2)nc2ccsc12
XC50: 685 nM

Fc1ccc2cc(C=Cc3ccncc3)[nH]c2c1
XC50: 617 nM

CC(C)n1c(CC2CCN(CC3CCN(C(=O)/C=C/c4ccc(Cl)c(Cl)c4)CC3)CC2)nc2ccccc21
XC50: 612 nM

O=C(COc1ccccc1Cc1ccccc1)Nc1cc(Cl)ccc1-n1cncn1
XC50: 640 nM

CCCCCC(C)N/C(=N/c1ccccc1Br)Nc1ccc([N+](=O)[O-])cc1O (stereo unspecified)
XC50: 615 nM

CCCC(C)NC(=O)[C@H](Cc1ccccc1)NC(=O)c1ccc(O)c(-c2ccc(OC)cc2)c1 (stereo partly specified)
XC50: 1240 nM

CCc1cccc(OCC2CCCN(c3ccc(C(=O)NC4CC4)cn3)C2)c1 (stereo unspecified)
XC50: 1440 nM

COc1cc(NC(=O)c2sc(-c3ccc(Cl)cc3)cc2NC(=O)CN2CC[C@@H](O)C2)ccc1OCCN1CCCC1
XC50: 802 nM

O=C(Nc1ccon1)c1cc(-c2cccnc2)nc2ccc(Cl)cc12
XC50: 786 nM

Cc1ccc(NCc2cccc(F)c2)cc1S(=O)(=O)N[C@@H]1CCN(C#N)C1
XC50: 785 nM

Cc1cc(C(=O)CN2C(=O)NC3(CCCc4ccccc43)C2=O)c(C)n1Cc1ccc(F)cc1 (stereo unspecified)
XC50: 970 nM

Cc1cccc2nc(-c3cccc(-c4cccc(NC(=O)c5ccc(=O)[nH]n5)c4)c3)[nH]c12
XC50: 789 nM

CC(C)N1CCN(C(=O)c2ccc(CNCCCN3CCN(c4cccc(Cl)c4Cl)CC3)s2)CC1
XC50: 716 nM

Cc1cccc2nc(-c3cccc(-c4cccc(NC(=O)c5ccncc5)c4)c3)[nH]c12
XC50: 236 nM

c1ccc2c(CNCCCCCCNCc3c(OCC4CC4)ccc4ccccc34)c(OCC3CC3)ccc2c1
XC50: 928 nM

COc1cc2nc(N3CCC(CNC(=O)c4cccc5cccnc45)CC3)nc(N)c2cc1OC
XC50: 1700 nM

Cc1[nH]c(C)c(-c2ccc(-c3cc(C(F)(F)F)cc(C(F)(F)F)c3)nc2)c(=O)c1Br
XC50: 81.4 nM

CC(C)CNCc1cccc(-c2cccc(CN(CCN(C)C)C(=O)Nc3ccccc3)c2)c1
XC50: 795 nM

N#Cc1ccc(NC(=O)c2ccc(C(=O)NCCCCN3CCC(c4ccc5c(c4OCCOC4CCCCO4)CCCC5)CC3)cc2)cc1 (stereo unspecified)
XC50: 580 nM

CC(CN(C)C)C(=O)Nc1cccc(-c2ccc(-c3nc4cc(F)ccc4[nH]3)s2)c1 (stereo unspecified)
XC50: 801 nM

Oc1c(Cl)cc(Nc2nccc(Nc3ccc(Oc4ccccc4)cc3)n2)cc1Cl
XC50: 786 nM

COc1cc2c(cc1OCCN1CCC(N)CC1)N(C(=O)/C=C/c1ccccc1Cl)CC2
XC50: 1120 nM

N#Cc1ccccc1C1CCN(C2CCC(Nc3cc(-c4cccnc4)ccn3)CC2)CC1 (stereo unspecified)
XC50: 958 nM

N#Cc1ccc(CN2CCC(Oc3ccc(NC(=O)c4ccco4)cc3Cl)C2)cc1 (stereo unspecified)
XC50: 331 nM

N#CN1CC[C@H](CS(=O)(=O)c2cccc(Br)c2)C1
XC50: 874 nM

CCCCCCC(C)c1cc(O)c2c(c1)OC(C)(C)c1ccncc1-2 (stereo unspecified)
XC50: 797 nM

CCCC(CNC(=O)c1cc2c(Cl)cc(Cl)cc2[nH]1)CNc1cc(=O)c2ccccc2[nH]1 (stereo unspecified)
XC50: 903 nM

Cc1cccc2nc(-c3ccc(-c4cccc(NC(=O)c5cnn6cccnc56)c4)cc3)[nH]c12
XC50: 872 nM

CN(Cc1ccccc1)C(=O)c1nn(CCCN2CCC(N3CCCC3)CC2)cc1-c1ccc(Cl)c(Cl)c1
XC50: 767 nM

Nc1oc2c(CN3CCCCCC3)c(O)ccc2c(=O)c1-c1nc2ccccc2s1
XC50: 516 nM

CCCCN(CCCC)CCNC(=O)c1cc(OC(F)(F)F)ccc1O
XC50: 920 nM

Cc1cc(NS(=O)(=O)c2cccc(C(C)N3CCC(N4CCCC4)CC3)c2)ccc1C(C)C (stereo unspecified)
XC50: 824 nM

O=S(=O)(Nc1cccc(CCN2CCC(N3CCCCC3)CC2)c1)c1ccc(-c2ccccc2)cc1
XC50: 1120 nM

O=C(c1ccccc1NN=C1C(=O)N(c2ccccc2)N=C1c1ccccc1)N1CCOCC1
XC50: 351 nM

CCOCc1cnc(C)nc1CNC(=O)c1c(C)[nH]c2ccc(C)cc12
XC50: 1010 nM

O=C(N[C@@H](Cc1ccccc1)C(=O)NCc1cccc2ccccc12)c1ccc(O)c(-c2ccc(Cl)c(Cl)c2)c1
XC50: 236 nM

Cc1nc(N)nc(N)c1C#CC1CCCC1
XC50: 768 nM

COc1cc2nc(Nc3ccc4c(cnn4Cc4ccccc4)c3)nc(Nc3ccc4c(cnn4Cc4ccccc4)c3)c2cc1OC
XC50: 194 nM

CCCC1N=C(N)N=C(N)N1c1ccccc1 (stereo unspecified)
XC50: 823 nM

N#Cc1ccc(-n2cc(C(=O)Nc3ccc4c(c3)CCN(C3CCC3)CC4)c(C(F)(F)F)n2)cc1
XC50: 290 nM

O=C(C=Cc1ccc(Cl)c(Cl)c1)NCCCCCN1CCCC(CCCNS(=O)(=O)c2cccc(C(F)(F)F)c2)C1 (stereo unspecified)
XC50: 962 nM

O=C(Nc1cccc(CN2CCCN(CCc3ccccc3)CC2)c1)c1ccc(Cl)c(Cl)c1
XC50: 952 nM

O=c1cc(NCCCNCc2cccc(C(F)(F)F)c2Cl)[nH]c2ccccc12
XC50: 804 nM

COc1ccc(CCN2CCC(Nc3nc4ccccc4n3CCc3ccc(OC)cc3)CC2)cc1
XC50: 657 nM

Cc1cc(C(=O)OCC(N)=O)c(C)n1-c1ccc(F)cc1
XC50: 331 nM

O=C(Cc1ccccc1)NC(CCN1CCC(NC(=O)c2ccc(Cl)cc2)CC1)c1ccc(Cl)c(Cl)c1 (stereo unspecified)
XC50: 916 nM

CN1CCN(CCCN(Cc2csc(-c3ccc(CNCc4ccccc4)cc3)n2)C(=O)Nc2ccc3ccccc3c2)CC1
XC50: 1100 nM

O=C(Nc1ccc(-c2ccccc2)cc1)Nc1cccc(Cn2nc(Cl)c(N3CCCNCC3)cc2=O)c1
XC50: 676 nM

O=C(/C=C/c1ccc(Cl)c(Cl)c1)N1CCC(CCN2CCC(c3c[nH]c4ccncc34)CC2)CC1
XC50: 1140 nM

CN1CCC(N2CCN(Cc3ccc(-c4ccc(-c5nc6ccccc6[nH]5)s4)cc3)CC2)CC1
XC50: 140 nM

NCCc1cccc(-c2cnc3[nH]cc(-c4ccc(C(=O)O)cc4)c3c2)c1
XC50: 397 nM
